{"source": "patent US8552013B2", "about": "“Heterocyclic compounds based on N6-substituted adenine, methods of their preparation, their use for preparation of drugs, cosmetic preparations and growth regulators, pharmaceutical preparations, cosmetic preparations and growth regulators containing these compounds” (USTAV Experimentalni Botaniky Akademie Ved Ceske Republiky, priority 2001, dated 2013)", "key": {"[1]": {"tested_on": "breast carcinoma cell line MCF-7", "experiment": "Calcein AM cytotoxicity, MCF7", "format": "cell-based, human", "settings": "read-out: IC 50, MCF7", "method_in_brief": "(§1)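 Cells in DMEM with 10% FCS, pre-incubated 24 h, then exposed to six 4-fold compound dilutions in duplicate for 72 h at 37 °C, 5% CO2. Viability read by Calcein AM fluorescence after 1 h further incubation.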"}, "[2]": {"tested_on": "human diploid fibroblasts (HCA cells)", "experiment": "Senescence, beta-galactosidase staining of human diploid fibroblasts", "format": "cell-based", "settings": "for SENESCENT CELLS (%) HCA25: passage 25; for SENESCENT CELLS (%) HCA45: passage 45; for SENESCENT CELLS (%) HCA80: passage 80", "method_in_brief": "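HCA fibroblasts at passages 25, 45 and 80 were fixed for 5 min at room temperature in 2% formaldehyde/0.2% glutaraldehyde. They were then incubated at 37 °C without CO2 for 1 to 16 hours with X-gal 1 mg/ml, 5 mM ferri- and ferrocyanide and 2 mM MgCl2 in citric/phosphate buffer, pH 6.0. Blue-stained cells were scored.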"}, "G-361": {"tested_on": "G-361", "experiment": "Calcein AM cytotoxicity, G-361", "format": "cell-based", "settings": "read-out: IC 50, G-361"}, "K-562": {"tested_on": "K-562", "experiment": "Calcein AM cytotoxicity, K-562", "format": "cell-based", "settings": "read-out: IC 50, K-562", "method_in_brief": "as §1"}, "[3]": {"tested_on": "T-lymphoblastic leukemia cell line CEM", "experiment": "Calcein AM cytotoxicity, CEM", "format": "cell-based, human", "method_in_brief": "as §1"}, "Human lymphocytes": {"tested_on": "Human lymphocytes", "experiment": "Immunosuppressive activity, 3H-thymidine incorporation in concanavalin A activated lymphocytes", "format": "cell-based", "settings": "Lymphocyte, 72 hours, [3H]-TdR, read-out: Human lymphocytes ED50", "description": "One of the most important parameters of specific cellular immunity is proliferative response of lymphocytes to antigens or polyclonal mitogens. The majority of normal mammalian peripheral lymphocytes comprise resting cells. Antigens or nonspecific polyclonal mitogens have the capacity to activate lymphoid cells and this is accompanied by dramatic changes of intracellular metabolism (mitochondrial activity, protein synthesis, nucleic acids synthesis, formation of blastic cells and cellular proliferation). […] Variety of in vitro assays was developed to measure proliferative response of lymphocytes. The most commonly used is ^3H-thymidine incorporation method.\nDuring cell proliferation, DNA has to be replicated before the cell is divided into two daughter cells. This close association between cell doublings and DNA synthesis is very attractive for assessing cell proliferation. If labelled DNA precursors are added to the cell culture, cells that are about to divide incorporate the labelled nucleotide into their DNA. Traditionally, those assays usually involve the use of radiolabelled nucleosides, particularly tritiated thymidine ([^3H]-TdR). The amount of [^3H]-TdR incorporated into the cellular DNA is quantified by liquid scintillation counting.\nHuman heparinized peripheral blood was obtained from healthy volunteers by cubital vein punction. The blood was diluted in PBS (1:3) and mononuclear cells were separated by centrifugation in Ficoll-Hypaque density gradient (Pharmacia, 1.077 g/ml) at 2200 rpm for 30 minutes. Following centrifugation, lymphocytes were washed in PBS and resuspended in cell culture medium (RMPI 1640, 2 mM glutamine, 100 U/ml penicillin, 100 μg/ml streptomycin, 10% fetal calf serum and sodium bicarbonate).\nThe cells were diluted at target density of 1,100,000 cells/ml were added by pipette (180 μl) into 96/well microtiter plates. Four-fold dilutions of the intended test concentration were added at time zero in 20 μl aliquots to the microtiter plate wells. Usually, test compound was evaluated at six 4-fold dilutions. In routine testing, the highest well concentration was 266.7 μM. All drug concentrations were examined in duplicates. All wells with exception of unstimulated controls were activated with 50 μl of concanavalin A (25 μg/ml). Incubations of cells with test compounds lasted for 72 hours at 37° C., in 5% CO2 atmosphere and 100% humidity. At the end of incubation period, the cells were assayed by using the [^3H]-TdR:\nCell cultures were incubated with 0.5 μCi (20 μl of stock solution 500 μCi/ml) per well for 6 hours at 37° C. and 5% CO2. The automated cell harvester was used to lyse cells in water and adsorb the DNA onto glass-fiber filters in the format of microtiter plate. The DNA incorporated [^3H]-TdR was retained on the filter while unincorporated material passes through. The filters were dried at room temperature overnight, sealed into a sample bag with 10-12 ml of scintillant. The amount of [^3H]-TdR present in each filter (in cpm) was determined by scintillation counting in a Betaplate liquid scintillation counter. The effective dose of immunosuppressant (ED) was calculated using the following equation: ED=(CCPMdrug exposed well/mean CCPMcontrol wells)×100%. The ED50 value, the drug concentration inhibiting proliferation of 50% of lymphocytes, was calculated from the obtained dose response curves."}, "[4]": {"tested_on": "promyelocytic HL-60 leukemia", "experiment": "Calcein AM cytotoxicity, HL60", "format": "cell-based, human", "settings": "read-out: IC 50, HL60", "method_in_brief": "as §1"}}, "note": "“And” between values parts separate entries of the source, which are not always exact repeats. Equal values may be shown once. Read-outs that look alike come from different tables or passages of the source."}
{"compound": "Fc1ccccc1CNc1ncnc2nc[nH]c12", "note": "[6-(2-fluorobenzylamino)purine]", "values": [{"measurement": "IC50", "setting": "[1]; 72 hours, listed as 2F BAP", "value": "109 µM and 128 µM"}, {"measurement": "SENESCENT CELLS (%) HCA25", "setting": "[2]", "value": 4, "unit": "%"}, {"measurement": "SENESCENT CELLS (%) HCA45", "setting": "[2]", "value": 3, "unit": "%"}, {"measurement": "SENESCENT CELLS (%) HCA80", "setting": "[2]", "value": 16, "unit": "%"}, {"measurement": "IC50", "setting": "G-361; 72 hours", "value": 106, "unit": "µM"}, {"measurement": "IC50", "setting": "K-562; 72 hours", "value": "136 µM and 70.7 µM"}, {"measurement": "IC50", "setting": "[3]; 72 hours, listed as 2F BAP", "value": "136 µM and 98.9 µM"}, {"measurement": "EC50", "setting": "Human lymphocytes", "value": 2.5, "unit": "µM"}, {"measurement": "IC50", "setting": "[4]; 72 hours, listed as 2F BAP", "value": "> 167", "unit": "µM"}]}
{"compound": "Cc1ccccc1CNc1ncnc2nc[nH]c12", "note": "[6-(2-methylbenzylamino)purine]", "values": [{"measurement": "IC50", "setting": "[1]; Homo sapiens, MCF7, 72 h", "value": "> 167", "unit": "µM"}, {"measurement": "IC50", "setting": "G-361; Homo sapiens, G-361, 72 hours", "value": "> 167", "unit": "µM"}, {"measurement": "IC50", "setting": "K-562; Homo sapiens, K562, 72 h", "value": 157, "unit": "µM"}, {"measurement": "IC50", "setting": "[3]; Homo sapiens, 72 h", "value": "> 167", "unit": "µM"}, {"measurement": "IC50", "setting": "[4]; Homo sapiens, HL-60, 72 h", "value": "> 167", "unit": "µM"}]}
{"compound": "Fc1cccc(CNc2ncnc3nc[nH]c23)c1", "note": "[6-(3-fluorobenzylamino)purine]", "values": [{"measurement": "SENESCENT CELLS (%) HCA25", "setting": "[2]", "value": 3, "unit": "%"}, {"measurement": "SENESCENT CELLS (%) HCA45", "setting": "[2]", "value": 3, "unit": "%"}, {"measurement": "SENESCENT CELLS (%) HCA80", "setting": "[2]", "value": 15, "unit": "%"}, {"measurement": "EC50", "setting": "Human lymphocytes", "value": 18.2, "unit": "µM"}]}
{"compound": "Ic1cccc(CNc2ncnc3nc[nH]c23)c1", "note": "[6-(3-iodobenzylamino)purine]", "values": [{"measurement": "IC50", "setting": "[1]; Homo sapiens, MCF7, 72 h", "value": 130, "unit": "µM"}, {"measurement": "IC50", "setting": "G-361; Homo sapiens, G-361, 72 hours", "value": "> 167", "unit": "µM"}, {"measurement": "IC50", "setting": "K-562; Homo sapiens, K562, 72 h", "value": 94.7, "unit": "µM"}, {"measurement": "IC50", "setting": "[3]; Homo sapiens, 72 h", "value": 125, "unit": "µM"}, {"measurement": "IC50", "setting": "[4]; Homo sapiens, HL-60, 72 h", "value": 133, "unit": "µM"}]}
{"compound": "COc1cccc(CNc2ncnc3nc[nH]c23)c1", "note": "[6-(3-methoxybenzylamino)purine]", "values": [{"measurement": "IC50", "setting": "[1]; 72 hours, listed as 3MeO BAP", "value": 150, "unit": "µM"}]}
{"compound": "Cc1ccc(CNc2ncnc3nc[nH]c23)cc1", "note": "[6-(4-methylbenzylamino)purine]", "values": [{"measurement": "IC50", "setting": "[1]; Homo sapiens, MCF7, 72 h", "value": 82.8, "unit": "µM"}, {"measurement": "IC50", "setting": "G-361; Homo sapiens, G-361, 72 hours", "value": 160, "unit": "µM"}, {"measurement": "IC50", "setting": "K-562; Homo sapiens, K562, 72 h", "value": 72.8, "unit": "µM"}, {"measurement": "IC50", "setting": "[3]; Homo sapiens, 72 h", "value": 72.1, "unit": "µM"}, {"measurement": "IC50", "setting": "[4]; Homo sapiens, HL-60, 72 h", "value": 88, "unit": "µM"}]}
{"compound": "Oc1cccc(CNc2ncnc3nc[nH]c23)c1", "note": "[meta-topolin, 6-(3-hydroxybenzylamino)purine]", "values": [{"measurement": "SENESCENT CELLS (%) HCA25", "setting": "[2]", "value": 5, "unit": "%"}, {"measurement": "SENESCENT CELLS (%) HCA45", "setting": "[2]", "value": 3, "unit": "%"}, {"measurement": "SENESCENT CELLS (%) HCA80", "setting": "[2]", "value": 22, "unit": "%"}, {"measurement": "IC50", "setting": "K-562; 72 hours, listed as MT", "value": 140, "unit": "µM"}, {"measurement": "EC50", "setting": "Human lymphocytes", "value": 5.6, "unit": "µM"}]}
{"compound": "Oc1ccccc1CNc1ncnc2nc[nH]c12", "note": "[ortho-topolin, 6-(2-hydroxybenzylamino)purine]", "values": [{"measurement": "SENESCENT CELLS (%) HCA25", "setting": "[2]", "value": 3, "unit": "%"}, {"measurement": "SENESCENT CELLS (%) HCA45", "setting": "[2]", "value": 4, "unit": "%"}, {"measurement": "SENESCENT CELLS (%) HCA80", "setting": "[2]", "value": 17, "unit": "%"}]}
